Tests used:
[1] = system: MCF7; test: Cytotoxicity against human breast cancer MCF7 cell line expressing ER; type: functional, cell-based
[2] = system: MDA-MB-231; test: Cytotoxicity against human breast cancer MDA-MB-231 cell line lacking ER; type: functional, cell-based
[3] = Cell survival against human breast cancer MCF7 cell line after 72h at 10 uM; type: ADME, cell-based; details: MCF7 breast cancer cells, read-out: Activity
[4] = Cell survival against human breast cancer MDA-MB-231 cell line after 72h at 10 uM; type: ADME, cell-based; details: MDA-MB-231 breast cancer cells, read-out: Activity

With `C[C@]12CC[C@@H]3c4ccc(O)cc4CC[C@H]3[C@@H]1CC[C@@H]2O` as the compound, how does the Activity [1] read?
Its Activity is “Not toxic”.

What about the Activity [2] of the same compound?
The Activity was “Not toxic”.

With `C[C@]12CC[C@@H]3c4ccc(O)cc4CC[C@H]3[C@@H]1CC[C@@]2(O)C#CCCCCC#Cc1cn([C@@H]2O[C@H](CO)[C@@H](O)[C@H]2O)c(=O)[nH]c1=O` as the compound, how does the Activity [1] read?
The Activity was “Not toxic”.

And the Activity [2]?
Its Activity is “Not toxic”.

With `CC/C(=C(\c1ccccc1)c1ccc(OCCN(C)C)cc1)c1ccccc1` [TAMOXIFEN] as the compound, how does the viability at 72 h, 10 µM [3] read?
The viability at 72 h, 10 µM was 72%.

Which results are given for `C[C@]12CC[C@@H]3c4ccc(O)cc4CC[C@H]3[C@@H]1CC[C@@]2(O)C#Cc1cn([C@H]2C[C@H](O)[C@@H](CO)O2)c(=O)[nH]c1=O`?
Activity [1]: Not toxic; Activity [2]: Not toxic

Which Activity [1] does the source give for `Cn1cc(C#C[C@]2(O)CC[C@H]3[C@@H]4CCc5cc(O)ccc5[C@H]4CC[C@@]32C)c(=O)n(C)c1=O` here?
Its Activity is “Not toxic”.

What about the Activity [2] of the same compound?
Its Activity is “Not toxic”.

What does the source list for `Cn1cc(C#CCCCCC#C[C@]2(O)CC[C@H]3[C@@H]4CCc5cc(O)ccc5[C@H]4CC[C@@]32C)c(=O)n(C)c1=O`?
Activity [1]: Not toxic; Activity [2]: Not toxic

Which results are given for `C[C@]12CC[C@@H]3c4ccc(O)cc4CC[C@H]3[C@@H]1CC[C@@]2(O)C#CCCCCC#Cc1cn([C@H]2C[C@H](O)[C@@H](CO)O2)c(=O)[nH]c1=O`?
Activity [1]: Not toxic; Activity [2]: Not toxic

Which Activity [1] does the source give for `C[C@]12CC[C@@H]3c4ccc(O)cc4CC[C@H]3[C@@H]1CC[C@@]2(O)C#Cc1nc2c(N)ncnc2n1[C@H]1O[C@@H](CO)[C@H](O)[C@@H]1O` here?
Its Activity is “Not toxic”.

And the Activity [2]?
Its Activity is “Not toxic”.

With `C[C@]12CC[C@@H]3c4ccc(O)cc4CC[C@H]3[C@@H]1CC[C@@]2(O)C#CCCCCC#Cc1cnc(O)nc1O` as the compound, how does the Activity [1] read?
Its Activity is “Not toxic”.

What about the Activity [2] of the same compound?
Its Activity is “Not toxic”.

Which Activity [1] does the source give for `C[C@]12CC[C@@H]3c4ccc(O)cc4CC[C@H]3[C@@H]1CC[C@@]2(O)C#Cc1cnc(O)nc1O` here?
The Activity was “Not toxic”.

And the Activity [2]?
The Activity was “Not toxic”.

With `O=c1[nH]cc(F)c(=O)[nH]1` [FLUOROURACIL] as the compound, how does the viability at 72 h, 10 µM [3] read?
The viability at 72 h, 10 µM was 40%.

What about the viability at 72 h, 10 µM [4] of the same compound?
The viability at 72 h, 10 µM was 67%.

— ChEMBL document CHEMBL1147763, “Synthesis and biological activities of nucleoside-estradiol conjugates” (Bioorg Med Chem Lett, 2006)
